The numbers were not newly measured in US20040192715A1, “Methods of administering opioid antagonists and compositions thereof” (priority 2003, published 2004), which cites them from elsewhere.

The test system of data set [1] is mice. Particulars: parenteral administration to mice.
For data set [2] the following is noted: oral administration.

Consider `O=C1CC[C@@]2(O)[C@H]3Cc4ccc(O)c5c4[C@@]2(CCN3CC2CC2)C1O5` (stereo partly drawn) [naltrexone, 17-(cyclopropylmethyl) -4,5-epoxy-3,14-dihydroxymorphinan-6-one], for which the protein binding entry was “approximately 21%”. Further, in data set [1], the analgesia result is on record as “produce analgesia”. In addition, in data set [2], the oral bioavailability was 5-40%.
